According to publication PMC12557365 (Journal of Medicinal Chemistry, 2025):
Like-named read-outs stand apart in the source and are kept apart here.

Experiments:
[1] = in vitro; details: male, rat, microsomes
[2] = in vitro; details: both, human, microsomes
[3] = tested on: SARS-CoV-2 hCoV-19/Japan/TY/WK-521 strain; assay: microbe, parasite or virus in culture; format: cell-based; details: Severe acute respiratory syndrome coronavirus 2, HEK-293T, read-out: HEK 293T-AT EC50
[4] = molecular target: SARS-CoV-2 3CL^pro (Severe acute respiratory syndrome coronavirus 2, UniProt P0DTD1); assay: biochemical; format: biochemical
[5] = in vivo; details: male, Sprague-Dawley, rat
[6] = in vivo; details: male, beagle, dog, iv, 0.1 mg/kg
[7] = in vivo; details: female, cynomolgus monkey, iv, 0.1 mg/kg
[8] = in vitro; details: pig, LLC-PK1
[9] = tested on: HCoV-229E; assay: microbe, parasite or virus in culture; format: cell-based; details: Human coronavirus 229E, MRC5, read-out: EC50 HCoV-229E
[10] = tested on: SARS-CoV-2 Omicron strains; assay: microbe, parasite or virus in culture; format: cell-based; details: Severe acute respiratory syndrome coronavirus 2, Epithelial cell
[11] = molecular target: T1, P-gp (Homo sapiens, UniProt P08183); assay: in vitro; details: LLC-PK1
T1 sequence (P08183 whole entry): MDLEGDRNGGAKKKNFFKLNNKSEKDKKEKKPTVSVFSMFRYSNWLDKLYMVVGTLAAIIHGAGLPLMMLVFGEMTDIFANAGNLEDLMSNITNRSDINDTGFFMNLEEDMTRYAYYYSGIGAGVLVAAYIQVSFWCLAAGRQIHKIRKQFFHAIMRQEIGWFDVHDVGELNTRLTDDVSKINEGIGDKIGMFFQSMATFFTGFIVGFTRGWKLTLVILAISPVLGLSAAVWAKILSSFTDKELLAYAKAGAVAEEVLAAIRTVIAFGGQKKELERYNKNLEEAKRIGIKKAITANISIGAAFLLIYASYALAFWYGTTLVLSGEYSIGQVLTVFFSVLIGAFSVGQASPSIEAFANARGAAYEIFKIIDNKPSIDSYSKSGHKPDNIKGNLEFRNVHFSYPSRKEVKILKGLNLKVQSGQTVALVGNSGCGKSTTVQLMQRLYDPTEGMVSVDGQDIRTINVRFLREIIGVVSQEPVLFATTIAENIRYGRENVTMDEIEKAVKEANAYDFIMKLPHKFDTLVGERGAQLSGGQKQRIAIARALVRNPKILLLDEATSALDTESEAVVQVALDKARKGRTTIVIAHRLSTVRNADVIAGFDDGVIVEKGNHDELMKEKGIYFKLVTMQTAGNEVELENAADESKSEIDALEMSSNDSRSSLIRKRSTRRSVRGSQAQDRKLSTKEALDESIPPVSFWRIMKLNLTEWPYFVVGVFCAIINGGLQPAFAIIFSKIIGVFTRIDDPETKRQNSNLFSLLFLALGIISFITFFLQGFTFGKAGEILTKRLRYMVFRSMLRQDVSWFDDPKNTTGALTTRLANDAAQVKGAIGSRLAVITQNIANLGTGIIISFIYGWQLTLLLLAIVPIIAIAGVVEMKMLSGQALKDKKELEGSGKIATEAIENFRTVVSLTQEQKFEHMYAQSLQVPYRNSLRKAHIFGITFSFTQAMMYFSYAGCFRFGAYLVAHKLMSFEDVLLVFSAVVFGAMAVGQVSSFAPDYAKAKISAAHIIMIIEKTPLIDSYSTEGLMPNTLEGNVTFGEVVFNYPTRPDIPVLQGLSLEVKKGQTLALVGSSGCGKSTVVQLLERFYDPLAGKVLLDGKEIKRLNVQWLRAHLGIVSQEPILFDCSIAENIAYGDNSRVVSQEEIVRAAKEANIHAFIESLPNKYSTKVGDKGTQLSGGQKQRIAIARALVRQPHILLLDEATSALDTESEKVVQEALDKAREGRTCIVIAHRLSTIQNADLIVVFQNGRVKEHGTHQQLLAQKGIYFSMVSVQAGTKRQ

[12] = tested on: SARS-CoV-2; assay: microbe, parasite or virus in culture; format: cell-based; details: Severe acute respiratory syndrome coronavirus 2, A549
[13] = tested on: HCoV-OC43; assay: microbe, parasite or virus in culture; format: cell-based; details: Betacoronavirus 1, OC43, MRC5, read-out: EC50 HCoV-OC43
[14] = molecular target: T1, P-gp; details: LLC-PK1
[15] = read-out: SARS-CoV-2 3CL^pro IC50

Compound	remaining at 0.5 h [1] [%]	remaining at 0.5 h [2] [%]	EC50 [3] [nM]	IC50 [4] [nM]	also measured
Cc1cncc(-n2c(=O)c(Cc3ccccc3)c(N3CC4(CCOC4)C3)n(CC#N)c2=O)c1 [Compound 12, 2-(5-Benzyl-3-(5-methylpyridin-3-yl)-2,4-dioxo-6-(6-oxa-2-azaspiro[3.4]-octan-2-yl)-3,4-dihydropyrimidin-1(2H)-yl)-acetonitrile]	70	70	117	99.6	–
Cc1cncc(-n2c(=O)c(Cc3cc(F)c(F)c(F)c3)c(N3CCC(C(F)(F)F)CC3)n(CC#N)c2=O)c1 [Compound 6, 2-(3-(5-Methylpyridin-3-yl)-2,4-dioxo-5-(3,4,5-trifluorobenzyl)-6-(4-(trifluoromethyl)-piperidin-1-yl)-3,4-dihydropyrimidin-1(2H)-yl)-acetonitrile]	18	13	9.41	1.51	–
Cc1cncc(-n2c(=O)c(Cc3cc(F)c(F)c(F)c3)c(N3CC4(CCOC4)C3)n(CC#N)c2=O)c1 [Compound 9, 2-(3-(5-Methylpyridin-3-yl)-2,4-dioxo-6-(6-oxa-2-azaspiro[3.4]-octan-2-yl)-5-(3,4,5-trifluorobenzyl)-3,4-dihydropyrimidin-1(2H)-yl)-acetonitrile]	81	58	18.4	8.37	–
N#CCn1c(N2CC3(CCOC3)C2)c(-c2cccc(Cl)c2)c(=O)n(-c2cncc(Cl)c2)c1=O [Compound 14, 2-(5-(3-Chlorophenyl)-3-(5-chloropyridin-3-yl)-2,4-dioxo-6-(6-oxa-2-azaspiro[3.4]-octan-2-yl)-3,4-dihydropyrimidin-1(2H)-yl)-acetonitrile]	33	49	1.57	–	improvement of activity by substituents on the S2 phenyl group [4]: more than 10 -fold; IC50 [4, 15]: 0.403 nM
Cc1cncc(-n2c(=O)c(Cc3cc(F)c(F)c(F)c3)c(N3CC4(CCOCC4)C3)n(CC#N)c2=O)c1 [Compound 7, 2-(3-(5-Methylpyridin-3-yl)-2,4-dioxo-6-(7-oxa-2-azaspiro[3.5]-nonan-2-yl)-5-(3,4,5-trifluorobenzyl)-3,4-dihydropyrimidin-1(2H)-yl)-acetonitrile]	77	58	41.9	14	–
N#CCn1c(N2CC3(CCOC3)C2)c(Cc2cc(F)c(F)c(F)c2)c(=O)n(-c2cncc(Cl)c2)c1=O [Compound 10, 2-(3-(5-Chloropyridin-3-yl)-2,4-dioxo-6-(6-oxa-2-azaspiro[3.4]-octan-2-yl)-5-(3,4,5-trifluorobenzyl)-3,4-dihydropyrimidin-1(2H)-yl)-acetonitrile]	54	17	25.3	8.27	–
Cc1cncc(-n2c(=O)c(Cc3cc(F)c(F)c(F)c3)c(N3CC4(C3)CC(F)(F)C4)n(CC#N)c2=O)c1 [Compound 8, 2-(6-(6,6-Difluoro-2-azaspiro[3.3]-heptan-2-yl)-3-(5-methylpyridin-3-yl)-2,4-dioxo-5-(3,4,5-trifluorobenzyl)-3,4-dihydropyrimidin-1(2H)-yl)-acetonitrile]	62	36	14.4	5.63	–
Cc1cncc(-n2c(=O)c(Cc3cc(F)c(F)c(F)c3)c(N3CCCC3)n(CC#N)c2=O)c1 [Compound 5, 2-(3-(5-Methylpyridin-3-yl)-2,4-dioxo-6-(pyrrolidin-1-yl)-5-(3,4,5-trifluorobenzyl)-3,4-dihydropyrimidin-1(2H)-yl)-acetonitrile]	11	4	20.4	11.8	–
Cc1cncc(-n2c(=O)nc(N3Cc4ccccc4C3)n(Cc3cc(F)c(F)c(F)c3)c2=O)c1 [Compound 1, 6-(Isoindolin-2-yl)-3-(5-methylpyridin-3-yl)-1-(3,4,5-trifluorobenzyl)-1,3,5-triazine-2,4(1H,3H)-dione]	19	49	264	143	–
N#CCn1c(N2CC(O)(C(F)(F)F)C2)c(-c2ccc(F)c(Cl)c2)c(=O)n(-c2cncc(Cl)c2)c1=O [Compound 18, 2-(5-(3-Chloro-4-fluorophenyl)-3-(5-chloropyridin-3-yl)-6-(3-hydroxy-3-(trifluoromethyl)-azetidin-1-yl)-2,4-dioxo-3,4-dihydropyrimidin-1(2H)-yl)-acetonitrile]	99	103	3.82	0.391	clearance ([5]; iv): 6.69 mL/min/kg; half-life ([5]; iv): 6.89 h; bioavailability ([5]; po, 1 umol/kg): 38%; clearance [6]: 4.59 mL/min/kg; half-life [6]: 8.74 h; clearance [7]: 19.7 mL/min/kg; half-life [7]: 3.48 h; Papp A→B [8]: 1.26 ×10⁻⁶ cm/s
Cc1cncc(-n2c(=O)[nH]c(N3Cc4ccccc4C3)c(Cc3cc(F)c(F)c(F)c3)c2=O)c1 [Compound 2, 6-(Isoindolin-2-yl)-3-(5-methylpyridin-3-yl)-5-(3,4,5-trifluorobenzyl)-pyrimidine-2,4(1H,3H)-dione]	36	45	1490	335	–
N#CCn1c(N2CC(F)(F)C2)c(-c2ccc(F)c(Cl)c2)c(=O)n(-c2cncc(Cl)c2)c1=O [Compound 16, 2-(5-(3-Chloro-4-fluorophenyl)-3-(5-chloropyridin-3-yl)-6-(3,3-difluoroazetidin-1-yl)-2,4-dioxo-3,4-dihydropyrimidin-1(2H)-yl)-acetonitrile]	83	89	7.79	2.36	–
Cc1cncc(-n2c(=O)c(Cc3ccc(F)c(F)c3)c(N3CC4(CCOC4)C3)n(CC#N)c2=O)c1 [Compound 11, 2-(5-(3,4-Difluorobenzyl)-3-(5-methylpyridin-3-yl)-2,4-dioxo-6-(6-oxa-2-azaspiro[3.4]-octan-2-yl)-3,4-dihydropyrimidin-1(2H)-yl)-acetonitrile]	71	55	41.8	19.6	–
Cc1cncc(-n2c(=O)c(Cc3cc(F)c(F)c(F)c3)c(N3Cc4ccccc4C3)n(C)c2=O)c1 [Compound 3, 6-(Isoindolin-2-yl)-1-methyl-3-(5-methylpyridin-3-yl)-5-(3,4,5-trifluorobenzyl)-pyrimidine-2,4(1H,3H)-dione]	1	1	191	179	–
CC(C)(C)[C@H](NC(=O)C(F)(F)F)C(=O)N1C[C@H]2[C@@H]([C@H]1C(=O)N[C@H](C#N)C[C@@H]1CCNC1=O)C2(C)C [nirmatrelvir, reference compound]	–	–	–	–	EC50 [9]: 696 ± 210 nM; EC90 [10]: 45.1 ± 21.2 nM; Papp A→B [11]: 0.908 ×10⁻⁶ cm/s; Papp B→A [11]: 9.39 ×10⁻⁶ cm/s; EC50 [12]: 47.5 ± 12.3 nM; EC50 [13]: 58.8 ± 12.2 nM; Papp A→B [8]: 0.615 ×10⁻⁶ cm/s; Papp B→A [8]: 1.42 ×10⁻⁶ cm/s; P-gp substrate assessment [14]: P-gp substrates
N#CCn1c(N2CC3(CCOC3)C2)c(-c2ccc(F)c(Cl)c2)c(=O)n(-c2cncc(Cl)c2)c1=O [Compound 15, 2-(5-(3-Chloro-4-fluorophenyl)-3-(5-chloropyridin-3-yl)-2,4-dioxo-6-(6-oxa-2-azaspiro[3.4]-octan-2-yl)-3,4-dihydropyrimidin-1(2H)-yl)-acetonitrile]	58	55	4.48	0.493	improvement of activity by substituents on the S2 phenyl group [4]: more than 10 -fold
N#CCn1c(N2CC3(CCOC3)C2)c(-c2ccccc2)c(=O)n(-c2cncc(Cl)c2)c1=O [Compound 13, 2-(3-(5-Chloropyridin-3-yl)-2,4-dioxo-5-phenyl-6-(6-oxa-2-azaspiro[3.4]-octan-2-yl)-3,4-dihydropyrimidin-1(2H)-yl)-acetonitrile]	58	55	23.1	7.16	–
Cc1cncc(-n2c(=O)c(Cc3cc(F)c(F)c(F)c3)c(N3Cc4ccccc4C3)n(CC#N)c2=O)c1 [Compound 4, 2-(6-(Isoindolin-2-yl)-3-(5-methylpyridin-3-yl)-2,4-dioxo-5-(3,4,5-trifluorobenzyl)-3,4-dihydropyrimidin-1(2H)-yl)-acetonitrile]	3	1	4.94	–	IC50 [4, 15]: 0.76 nM
